“And” between values parts separate entries of the source, which are not always exact repeats. Identical values can stand only once.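 Following 48 hours of exposure in 96-well plates, responses at five concentrations were used to interpolate endpoints linearly. GI50: concentration for 50% inhibition of growth. The concentration for full growth arrest is given as TGI.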
Experiments:
Assay in all cases: growth of human tumour cells (NCI), 48 h
[1] = system: A549 NSCLC
[2] = system: CCRF-CEM leukemia
[3] = system: DU-145 prostate
[4] = system: HS 578T breast
[5] = system: LOX IMVI melanoma
[6] = system: MOLT-4 leukemia
[7] = system: PC-3 prostate
[8] = system: RXF 393 renal
[9] = system: SN12C renal
[10] = system: SR leukemia

| SMILES | TGI [1] | TGI [2] | TGI [3] | TGI [4] | TGI [5] | TGI [6] | TGI [7] | TGI [8] | TGI [9] | TGI [10] | GI50 [1] | GI50 [2] | GI50 [3] | GI50 [4] | GI50 [5] | GI50 [6] | GI50 [7] | GI50 [8] | GI50 [9] | GI50 [10] |
| --- | --- | --- | --- | --- | --- | --- | --- | --- | --- | --- | --- | --- | --- | --- | --- | --- | --- | --- | --- | --- |
| OC[C@H]1N[C@H](CO)[C@@H](O)[C@H]1O | > 100 µM | > 100 µM | > 100 µM | > 100 µM | > 100 µM | > 100 µM | > 100 µM | > 100 µM | > 100 µM | > 100 µM | – | – | – | – | – | – | – | – | – | – |
| COc1ccc(C2=NNC(c3sc(Cl)nc3Cl)C2)cc1 (stereo not drawn) | > 100 µM | 15.7 µM | 20.4 µM | 67.4 µM | 13.7 µM | 22.1 µM | 29.5 µM | 46.8 µM | 16.7 µM | 19.7 µM | 29.8 µM | 2.75 µM | 7.38 µM | 16.8 µM | 3.25 µM | 3580 nM | 6.11 µM | 18400 nM | 4.02 µM | 2540 nM |
| CN(Cc1cnc2nc(N)nc(N)c2n1)c1c(Cl)cc(C(=O)NC(CCC(=O)O)C(=O)O)cc1Cl (stereo not drawn) | > 100 µM | > 100 µM | > 100 µM | > 100 µM | > 100 µM | > 100 µM | > 100 µM | > 100 µM | > 100 µM | > 100 µM | < 0.0116 µM | < 0.01 µM | < 0.01 µM | 8.12 µM | < 0.01 µM | < 20.1 nM | < 0.01 µM | 731 nM | < 0.01 µM | < 10 nM |
| CC(C)C(Br)C(=O)NCC(=O)O (stereo not drawn) | > 100 µM | > 100 µM | > 100 µM | > 100 µM | > 100 µM | > 100 µM | > 100 µM | > 100 µM | > 100 µM | > 100 µM | – | – | – | – | – | – | – | – | – | – |
| O=C(O)CCN1C(=S)CSC1=S | > 100 µM | > 100 µM | > 100 µM | > 100 µM | > 100 µM | > 100 µM | > 100 µM | > 100 µM | > 100 µM | > 100 µM | – | – | – | – | – | – | – | – | – | – |
| COc1ccc(CN2c3ccccc3Sc3ccccc32)cc1O | 16.7 µM | 22.4 µM | 15 µM | 46 µM | 18.8 µM | 22.4 µM | 16.1 µM | 15.6 µM | 22.3 µM | 30.7 µM | 0.471 µM | 0.411 µM | 0.374 µM | 0.933 µM | 0.71 µM | 420 nM | 0.503 µM | 338 nM | 1.29 µM | 407 nM |
| COc1ccc2c(c1)[n+](=O)c(/C=C/C(=O)c1cc(OC)c(OC)c(OC)c1)c(C)n2[O-] | > 100 µM | 8.08 µM | 13.4 µM | 46.6 µM | 28.6 µM | 25.3 µM | > 100 µM | > 100 µM | 48.5 µM | 2.41 µM | 21.5 µM | 1.87 µM | 2.1 µM | 4.72 µM | 3.95 µM | 2550 nM | 15.7 µM | 3980 nM | 6.33 µM | 644 nM |
| CCS(=O)(=O)c1cccc(-c2cc(C(=O)NC3CCN(C)CC3)c(C)c3[nH]c4ncc(C)cc4c23)c1 | 4.12 µM and 3.79 µM | > 10 µM and 38.1 µM | 3.48 µM and 2.35 µM | 2.6 µM and 0.424 µM | 1.22 µM and 0.747 µM | > 6.38 µM and 3.14 µM | 5.85 µM and 4.71 µM | 3.11 µM and 1.56 µM | 3.88 µM and 11.3 µM | 2.14 µM and 1.58 µM | 0.49 µM and 0.169 µM | 0.101 µM and 0.0822 µM | 1.21 µM and 0.745 µM | 0.275 µM and 0.109 µM | 0.168 µM and 0.16 µM | 316 nM and 237 nM | 0.374 µM and 0.104 µM | 957 nM and 512 nM | 0.283 µM and 0.272 µM | 68.2 nM and < 24.6 nM |
| COc1ccc2c(CN3CCCC[C@H]3O)cc3cc4c(cc3c2c1)OCO4 | 2.82 µM | 4.07 µM | 7.24 µM | 2.94 µM | 0.849 µM | 4.55 µM | 3.53 µM | 0.95 µM | 4.06 µM | 0.854 µM | 0.28 µM | 0.528 µM | 0.475 µM | 0.663 µM | 0.228 µM | 283 nM | 0.467 µM | 191 nM | 0.326 µM | 195 nM |
| BrCc1ccc2ccc3ccc(CBr)nc3c2n1 | 34.7 µM | 3.75 µM | 21.7 µM | 71.3 µM | 3.21 µM | 4.66 µM | 5.75 µM | 4.69 µM | 4.55 µM | 5.54 µM | – | – | – | – | – | – | – | – | – | – |
| Cc1nc(C(=O)OCc2ccccc2)cc(OCc2ccccc2)c1C | 49.4 µM | 62.1 µM | 41.4 µM | 47.9 µM | 36 µM | 7.53 µM | > 69.8 µM | 28 µM | 35.4 µM | 28.6 µM | 19.3 µM | 20.5 µM | 17 µM | 18.6 µM | 17.1 µM | 517 nM | 21 µM | 13500 nM | 17.5 µM | – |
| CC(C)(O)c1cc(Nc2cc(Oc3cn(C4CC4)nc3C3CCOCC3)ccn2)ccn1 | > 100 µM | > 100 µM | > 100 µM | > 100 µM | > 100 µM | > 100 µM | > 100 µM | > 100 µM | > 100 µM | > 100 µM | > 100 µM | > 100 µM | > 100 µM | 73.8 µM | 35.1 µM | 91700 nM | 88.1 µM | 68400 nM | > 100 µM | > 100000 nM |
| O=C1C=C(NCCc2ccccc2)c2ccccc2C1=O | 3.79 µM | 67.9 µM | 3.13 µM | 5.09 µM | 3.37 µM | 64.8 µM | 26.2 µM | 20.4 µM | 3.37 µM | 43.3 µM | – | – | – | – | – | – | – | – | – | – |
| CN(C)CCN=c1nc2c(c(N)n1-c1ccccc1)c(=S)n(-c1ccccc1)c(=S)n2-c1ccccc1 | 19.8 µM | – | 17.7 µM | 9.51 µM | 2.71 µM | > 21.6 µM | 27.7 µM | 7.8 µM | 20.5 µM | 3.34 µM | 4.86 µM | 4.68 µM | 4.91 µM | 1.98 µM | 1.38 µM | 2790 nM | 4.58 µM | 2620 nM | 6.21 µM | 1360 nM |
| Cn1cc(-c2csc(-c3ccc(Cl)cc3)n2)c2cccnc21 | 46.4 µM | 51.9 µM | 28.9 µM | 34.4 µM | 24.9 µM | 38.6 µM | 34.2 µM | 39.8 µM | 32.5 µM | 59.6 µM | 17.6 µM | 18.4 µM | 15.3 µM | 12 µM | 12.4 µM | 12400 nM | 11.4 µM | 13900 nM | 14.8 µM | 13300 nM |
| COC(=O)N[C@@H](C)CNc1nccc(-c2cn(C(C)C)nc2-c2cc(Cl)cc(NS(C)(=O)=O)c2F)n1 | > 100 µM | > 100 µM | > 100 µM | > 100 µM | > 100 µM | > 100 µM | > 100 µM | 23.3 µM | > 100 µM | > 84.7 µM | 48.2 µM | 38.2 µM | > 93 µM | 0.599 µM | 0.268 µM | 50900 nM | > 100 µM | 623 nM | > 100 µM | 25600 nM |
| Cc1cc(C)c(-c2c(O)c(Br)c(-c3c(C)cc(C)c(Br)c3C)c(O)c2Br)c(C)c1Br | 11.7 µM | 20.2 µM | 16 µM | 11.9 µM | 3.39 µM | 13 µM | 8.76 µM | 7.31 µM | 15 µM | 8.29 µM | 2.73 µM | 4.06 µM | 4.21 µM | 2.32 µM | 1.74 µM | 2390 nM | 1.88 µM | 2270 nM | 2.69 µM | 2320 nM |
| COc1cc(C=NCC(=O)CSC(c2ccccc2)c2ccccc2)ccc1O | 26 µM | 50.9 µM | 37.8 µM | 5.52 µM | 23.5 µM | 31.8 µM | 28.2 µM | 26.8 µM | 28.1 µM | 25.3 µM | 10.7 µM | 8.42 µM | 12.2 µM | 0.0464 µM | 10.5 µM | 9050 nM | 9.26 µM | 13400 nM | 14.1 µM | 8270 nM |
| COc1c(OC2OC(C)C(O)C(O)C2O)c(OC)c2oc(-c3ccc(O)cc3)cc(=O)c2c1O (stereo not drawn) | > 100 µM | > 100 µM | 52.8 µM | > 100 µM | > 100 µM | > 100 µM | > 100 µM | 66.5 µM | > 100 µM | 93.5 µM | 32.3 µM | 31.4 µM | 24.1 µM | 29.8 µM | 27.9 µM | 15400 nM | 34.8 µM | 23800 nM | 27.8 µM | 19700 nM |
| CCN(CC)c1ccc(/C=N/N=C(N)N)cc1 | > 100 µM | 67.7 µM | 28.2 µM | 26.5 µM | 19.9 µM | 35.7 µM | 92.9 µM | 11.7 µM | 27.2 µM | 15 µM | 4.99 µM | 3.5 µM | 4.3 µM | 3.68 µM | 5.02 µM | 4950 nM | 3.51 µM | 2850 nM | 4.88 µM | 2030 nM |

Reference: PubChem BioAssay (NCI)
